Where two headings read alike, the source gives them in different places.
Columns and labels:
c-Kit kinase = c-Kit kinase (Homo sapiens (Human), UniProt P10721); assay: c-Kit kinase biochemical activity assay (AlphaScreen, biotin-(E4Y)10 phosphorylation)
Experimental: In one assay the biochemical activity IC50 values are determined with respect to inhibition of c-Kit kinase activity, where inhibition of phosphorylation of a peptide substrate is measured as a function of compound concentration. Compounds to be tested are dissolved in DMSO to a concentration of 20 mM. These are diluted 30 μL into 120 μL of DMSO (4 mM) and 1 μL is added to an assay plate. These are then serially diluted […] (50 μL to 100 μL DMSO) for a total of 8 points. Plates are prepared such that each kinase reaction is 20 μL in 1× kinase buffer (25 mM HEPES, pH 7.5, 2 mM MgCl2, 2 mM MnCl2, 0.01% Tween-20, 1 mM DTT, 0.01% BSA), 5% DMSO and 100 μM ATP. Substrate is 30 nM biotin-(E4Y)10 (Millipore). C-kit kinase (obtained from Millipore (#14-559) or is prepared as described in U.S. Patent Application Publication Number 2009/0076046, the disclosure of which is hereby incorporated by reference as it relates to this assay) is at 0.75 ng per sample. After incubation of the kinase reaction for 1 hour at room temperature, 5 μL of donor beads (Streptavidin coated beads (Perkin Elmer Life Science) final concentration 10 μg/mL) in stop buffer (25 mM Hepes pH 7.5, 100 mM EDTA, 0.01% BSA) is added, the sample is mixed and incubated for 20 minutes at room temperature before adding 5 μL of acceptor beads (PY20 coated beads (Perkin Elmer Life Science) final concentration 10 μg/mL) in stop buffer. The samples are incubated for 60 minutes at room temperature and the signal per well is read on Envision reader. […] The signal vs. compound concentration is used to determine the IC50.

Fms kinase = Fms kinase (Homo sapiens (Human), UniProt P07333); assay: Fms kinase biochemical activity assay (AlphaScreen, biotin-(E4Y)10 phosphorylation)
Outline: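 Recombinant human Fms phosphorylating 30 nM biotin-(E4Y)10 with 100 μM ATP (1 ng/well enzyme) in Hepes pH 7.5 buffer with Mg2+/Mn2+, 5% DMSO, 20 min at 30 °C. Phosphotyrosine detected by AlphaScreen streptavidin donor/PY20 acceptor beads; IC50 from signal versus compound concentration.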

BCR-FMS/BaF3 cells = BCR-FMS/BaF3 cells (Homo sapiens, UniProt P07333); assay: BCR-FMS/BaF3 cell proliferation assay (ATPlite); assay type: cell-based
Outline: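 BCR-FMS/BaF3 cells at 2×10^5 cells/mL in growth media with 1 mg/mL G418, without WEHI/IL-3, treated with 8-point 1:3 compound titrations (top 10 μM final) for 3 days at 37 °C, 5% CO2. Cell number by ATPlite luminescence; IC50 from signal versus concentration.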

[1] = 100 μM ATP, read-out: Biochemical (IC50 μM) Fms
[2] = read-out: Biochemical activity (IC50 μM) Fms
[3] = Kit IC50/Fms IC50, BCR-KIT/BaF3 vs BCR-FMS/BaF3 cells
[4] = read-out: BCR/BaF3 (IC50 μM) Fms; BCR-FMS/BaF3 cells
[5] = read-out: Cell based (IC50 μM) BCR/BaF3 (Fms); BCR-FMS/BaF3 cells, 3 days

Chain of BCR-FMS/BaF3 cells (P07333 20-972 limits assumed, change not shown): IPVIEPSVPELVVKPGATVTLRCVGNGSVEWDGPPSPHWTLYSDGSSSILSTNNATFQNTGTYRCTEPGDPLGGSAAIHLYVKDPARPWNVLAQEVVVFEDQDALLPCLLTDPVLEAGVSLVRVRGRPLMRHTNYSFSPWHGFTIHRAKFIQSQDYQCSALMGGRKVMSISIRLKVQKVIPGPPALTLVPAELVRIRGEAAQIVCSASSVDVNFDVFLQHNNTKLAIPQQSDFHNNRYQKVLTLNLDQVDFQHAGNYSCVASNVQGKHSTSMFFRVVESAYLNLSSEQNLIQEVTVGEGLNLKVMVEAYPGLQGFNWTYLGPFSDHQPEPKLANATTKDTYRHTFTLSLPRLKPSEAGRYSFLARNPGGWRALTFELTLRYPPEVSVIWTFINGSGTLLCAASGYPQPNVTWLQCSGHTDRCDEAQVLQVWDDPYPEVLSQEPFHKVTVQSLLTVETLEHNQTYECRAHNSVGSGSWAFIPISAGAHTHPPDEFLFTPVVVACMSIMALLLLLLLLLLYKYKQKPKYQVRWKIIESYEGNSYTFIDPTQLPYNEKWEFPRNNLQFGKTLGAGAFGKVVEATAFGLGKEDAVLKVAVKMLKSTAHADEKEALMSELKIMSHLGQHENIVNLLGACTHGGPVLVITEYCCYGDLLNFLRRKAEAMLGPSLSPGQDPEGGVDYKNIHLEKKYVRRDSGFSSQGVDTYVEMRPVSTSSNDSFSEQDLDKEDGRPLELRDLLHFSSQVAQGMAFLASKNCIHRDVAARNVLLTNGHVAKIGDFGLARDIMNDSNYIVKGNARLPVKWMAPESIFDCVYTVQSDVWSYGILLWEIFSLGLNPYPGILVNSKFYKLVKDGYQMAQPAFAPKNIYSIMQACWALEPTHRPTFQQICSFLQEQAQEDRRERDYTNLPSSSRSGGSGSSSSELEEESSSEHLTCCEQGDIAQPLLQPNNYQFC
Chain of Fms kinase (P07333 20-972): as the sequence (P07333 20-972 limits assumed, change not shown) above
Chain of c-Kit kinase (P10721 26-976): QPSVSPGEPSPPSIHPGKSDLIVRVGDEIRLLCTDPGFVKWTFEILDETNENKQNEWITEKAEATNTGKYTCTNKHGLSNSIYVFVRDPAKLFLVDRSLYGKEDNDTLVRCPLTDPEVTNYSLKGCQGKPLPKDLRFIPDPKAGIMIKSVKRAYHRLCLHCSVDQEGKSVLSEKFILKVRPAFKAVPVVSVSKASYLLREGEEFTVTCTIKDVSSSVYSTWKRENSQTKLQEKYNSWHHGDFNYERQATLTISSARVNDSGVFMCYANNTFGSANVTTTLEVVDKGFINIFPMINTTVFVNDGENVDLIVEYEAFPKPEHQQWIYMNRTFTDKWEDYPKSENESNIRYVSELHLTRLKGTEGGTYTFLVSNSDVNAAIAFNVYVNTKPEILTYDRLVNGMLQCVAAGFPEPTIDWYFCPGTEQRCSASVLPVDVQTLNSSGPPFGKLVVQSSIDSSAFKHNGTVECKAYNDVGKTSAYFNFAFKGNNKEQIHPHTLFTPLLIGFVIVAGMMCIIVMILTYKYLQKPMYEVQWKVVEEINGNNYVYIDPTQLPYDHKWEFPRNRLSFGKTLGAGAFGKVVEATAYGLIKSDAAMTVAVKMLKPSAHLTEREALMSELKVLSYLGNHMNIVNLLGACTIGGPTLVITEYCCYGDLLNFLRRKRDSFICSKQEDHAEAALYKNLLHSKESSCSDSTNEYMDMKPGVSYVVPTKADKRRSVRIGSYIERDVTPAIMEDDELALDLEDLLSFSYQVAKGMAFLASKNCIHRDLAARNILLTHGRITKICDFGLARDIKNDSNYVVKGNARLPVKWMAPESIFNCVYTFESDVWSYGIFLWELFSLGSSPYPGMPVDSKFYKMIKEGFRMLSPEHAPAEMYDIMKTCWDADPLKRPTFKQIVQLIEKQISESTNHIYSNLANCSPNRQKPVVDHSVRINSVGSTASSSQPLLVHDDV

Row | SMILES | IC50 (c-Kit kinase) [µM] | IC50 (Fms kinase; [1]) [µM] | Biochemical activity selectivity (Kit IC50/Fms IC50) (Fms kinase) | IC50 (Fms kinase; [2]) [µM] | BCR/BaF3 selectivity (Kit IC50/Fms IC50) (BCR-FMS/BaF3 cells; [3]) | IC50 (BCR-FMS/BaF3 cells; [4]) [µM] | IC50 (BCR-FMS/BaF3 cells; [5]) [µM] | IC50 (BCR-FMS/BaF3 cells; BCR-FMS/BaF3 cells; read-out: BCR/BaF3 (IC50 μM) Fms) [µM]
1 | COc1cnc2[nH]cc(Cc3ccc(NCc4ccc(OC)nc4)nc3F)c2c1 [Compound P-2030, [6-Fluoro-5-(5-methoxy-1H-pyrrolo[2,3-b]pyridin-3-ylmethyl)-pyridin-2-yl]-(6-methoxy-pyridin-3-ylmethyl)-amine] | > 0.1 | < 0.1 | <20 | < 0.1 | >20 | < 0.1 | < 0.1 | –
2 | Cc1cnc2[nH]cc(Cc3ccc(NCc4ccc(C(F)(F)F)nc4)nc3F)c2c1 [Compound P-2031, [6-Fluoro-5-(5-methyl-1H-pyrrolo[2,3-b]pyridin-3-ylmethyl)-pyridin-2-yl]-(6-trifluoromethyl-pyridin-3-ylmethyl)-amine] | > 0.1 | < 0.1 | <20 | < 0.1 | >20 | < 0.1 | < 0.1 | –
3 | COc1cnc2[nH]cc(Cc3ccc(NCc4ccc(Cl)cc4)nc3F)c2c1 [Compound P-2032, (4-Chloro-benzyl)-[6-fluoro-5-(5-methoxy-1H-pyrrolo[2,3-b]pyridin-3-ylmethyl)-pyridin-2-yl]-amine] | < 0.1 | < 0.1 | <20 | < 0.1 | <20 | < 0.1 | < 0.1 | –
4 | COc1ccnc2[nH]cc(Cc3ccc(NCc4ccc(Cl)cc4)nc3F)c12 [Compound P-2037, (4-Chloro-benzyl)-[6-fluoro-5-(4-methoxy-1H-pyrrolo[2,3-b]pyridin-3-ylmethyl)-pyridin-2-yl]-amine] | > 0.1 | < 0.1 | <20 | < 0.1 | <20 | < 0.1 | < 0.1 | –
5 | COc1ccc(CNc2ncc(Cc3c[nH]c4ncc(Cl)cc34)cn2)cn1 [Compound P-2038, [5-(5-Chloro-1H-pyrrolo[2,3-b]pyridin-3-ylmethyl)-pyrimidin-2-yl]-(6-methoxy-pyridin-3-ylmethyl)-amine] | > 0.1 | < 0.1 | <20 | < 0.1 | >20 | < 0.1 | < 0.1 | –
6 | COc1ncccc1CNc1ccc(Cc2c[nH]c3ncccc23)c(F)n1 [Compound P-2045, [6-Fluoro-5-(1H-pyrrolo[2,3-b]pyridin-3-ylmethyl)-pyridin-2-yl]-(2-methoxy-pyridin-3-ylmethyl)-amine] | > 0.1 | – | >20 | < 0.1 | >20 | < 0.1 | – | –
7 | COc1ncccc1CNc1ccc(Cc2c[nH]c3ncc(C)cc23)c(F)n1 [Compound P-2052, [6-Fluoro-5-(5-methyl-1H-pyrrolo[2,3-b]pyridin-3-ylmethyl)-pyridin-2-yl]-(2-methoxy-pyridin-3-ylmethyl)-amine] | > 0.1 | – | >20 | < 0.1 | >20 | < 0.1 | – | –
8 | COc1ccc(CNc2ncc(Cc3c[nH]c4ncc(C)cc34)cn2)cn1 [Compound P-2057, (6-Methoxy-pyridin-3-ylmethyl)-[5-(5-methyl-1H-pyrrolo[2,3-b]pyridin-3-ylmethyl)-pyrimidin-2-yl]-amine] | > 0.1 | < 0.1 | <20 | < 0.1 | >20 | < 0.1 | < 0.1 | –
9 | COc1ncc(F)cc1CNc1ncc(Cc2c[nH]c3ncc(C)cc23)cn1 [Compound P-2061, (5-Fluoro-2-methoxy-pyridin-3-ylmethyl)-[5-(5-methyl-1H-pyrrolo[2,3-b]pyridin-3-ylmethyl)-pyrimidin-2-yl]-amine] | > 0.1 | – | >20 | < 0.1 | >20 | < 0.1 | – | –
10 | Cc1cnc2[nH]cc(Cc3ccc(NCc4cnccc4C(F)(F)F)nc3F)c2c1 [Compound P-2062, [6-Fluoro-5-(5-methyl-1H-pyrrolo[2,3-b]pyridin-3-ylmethyl)-pyridin-2-yl]-(4-trifluoromethyl-pyridin-3-ylmethyl)-amine] | > 0.1 | – | >20 | < 0.1 | >20 | < 0.1 | – | –
11 | FC(F)(F)c1ccncc1CNc1ccc(Cc2c[nH]c3ncc(Cl)cc23)cn1 [Compound P-2063, [5-(5-Chloro-1H-pyrrolo[2,3-b]pyridin-3-ylmethyl)-pyridin-2-yl]-(4-trifluoromethyl-pyridin-3-ylmethyl)-amine] | < 0.1 | – | <20 | < 0.1 | >20 | < 0.1 | – | –
12 | COc1ncc(F)cc1CNc1ncc(Cc2c[nH]c3ncc(Cl)cc23)cn1 [Compound P-2064, [5-(5-Chloro-1H-pyrrolo[2,3-b]pyridin-3-ylmethyl)-pyrimidin-2-yl]-(5-fluoro-2-methoxy-pyridin-3-ylmethyl)-amine] | > 0.1 | – | >20 | < 0.1 | >20 | < 0.1 | – | –
13 | Cc1cnc2[nH]cc(Cc3ccc(NCc4cnccc4C(F)(F)F)nc3)c2c1 [Compound P-2070, [5-(5-Methyl-1H-pyrrolo[2,3-b]pyridin-3-ylmethyl)-pyridin-2-yl]-(4-trifluoromethyl-pyridin-3-ylmethyl)-amine] | < 0.1 | – | <20 | < 0.1 | >20 | – | – | < 0.1
14 | COc1cc(CNc2ccc(Cc3c[nH]c4ncc(C)cc34)c(F)n2)c(F)cn1 [Compound P-2071, (5-Fluoro-2-methoxy-pyridin-4-ylmethyl)-[6-fluoro-5-(5-methyl-1H-pyrrolo[2,3-b]pyridin-3-ylmethyl)-pyridin-2-yl]-amine] | > 0.1 | – | >20 | < 0.1 | >20 | > 0.1 | – | –
15 | COc1ncc(CNc2ncc(Cc3c[nH]c4ncc(C)cc34)cn2)cc1F [Compound P-2073, (5-Fluoro-6-methoxy-pyridin-3-ylmethyl)-[5-(5-methyl-1H-pyrrolo[2,3-b]pyridin-3-ylmethyl)-pyrimidin-2-yl]-amine] | > 0.1 | – | >20 | < 0.1 | >20 | < 0.1 | – | –
16 | Cc1cnc2[nH]cc(Cc3cnc(NCc4ccc(Cl)nc4)nc3)c2c1 [Compound P-2078, (6-Chloro-pyridin-3-ylmethyl)-[5-(5-methyl-1H-pyrrolo[2,3-b]pyridin-3-ylmethyl)-pyrimidin-2-yl]-amine] | > 0.1 | – | >20 | < 0.1 | >20 | < 0.1 | – | –

Reference: patent US9096593B2, “Compounds and methods for kinase modulation, and indications therefor” (Plexxikon Inc., priority 2009, dated 2015)
